How the values were obtained:
rape = test: Test B pre/postemergence rape; assay type: in vivo, Brassica napus; details: Preemergence
Procedure, shortened: (§1)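 Herbicidal effect was estimated by eye on a ten-point control scale after plants spent twelve to sixteen days in a greenhouse following soil or foliar treatment. Foliar sprays targeted plants at one to four leaves; all doses were formulated in a non-phytotoxic solvent with surfactant.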

wheat = test: Test B pre/postemergence wheat; assay type: in vivo, Triticum aestivum; details: Preemergence
Procedure, shortened: as §1

duck salad = test: Test B flood test duck salad; assay type: in vivo, Heteranthera limosa
Procedure, shortened: (§2)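 Flood test on plants grown to the 2-leaf stage; treated plants kept in greenhouse twelve to sixteen days, then visually rated against controls on a 0 (no effect) to 10 (complete control) scale.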

blackgrass = test: Test B pre/postemergence blackgrass; assay type: in vivo, Alopecurus myosuroides; details: Preemergence
Procedure, shortened: as §1

rice = test: Test B flood test rice; assay type: in vivo, Oryza sativa
Procedure, shortened: as §2

bamyardgrass = test: Test B flood test barnyardgrass; assay type: in vivo, Echinochloa crus-galli
Procedure, shortened: as §2

crabgrass = test: Test B pre/postemergence crabgrass; assay type: in vivo, Digitaria sanguinalis; details: Preemergence
Procedure, shortened: as §1

bedstraw = test: Test B pre/postemergence bedstraw; assay type: in vivo, Galium aparine; details: Preemergence
Procedure, shortened: as §1

wild oat = test: Test B pre/postemergence wild oat; assay type: in vivo, Avena fatua; details: Preemergence
Procedure, shortened: as §1

morningglory = test: Test B pre/postemergence morningglory; assay type: in vivo, Ipomoea hederacea; details: Preemergence
Procedure, shortened: as §1

soybean = test: Test B pre/postemergence soybean; assay type: in vivo, Glycine max; details: Preemergence
Procedure, shortened: as §1

sugar beet = test: Test B pre/postemergence sugar beet; assay type: in vivo, Beta vulgaris; details: Preemergence
Procedure, shortened: as §1

corn = test: Test B pre/postemergence corn; assay type: in vivo, Zea mays; details: Preemergence
Procedure, shortened: as §1

cocklebur = test: Test B pre/postemergence cocklebur; assay type: in vivo, Xanthium strumarium; details: Preemergence
Procedure, shortened: as §1

smallflower flatsedge = test: Test B flood test smallflower flatsedge; assay type: in vivo, Cyperus difformis
Procedure, shortened: as §2

velvetleaf = test: Test B pre/postemergence velvetleaf; assay type: in vivo, Abutilon theophrasti; details: Preemergence
Procedure, shortened: as §1

pigweed = test: Test B pre/postemergence pigweed; assay type: in vivo, Amaranthus retroflexus; details: Preemergence
Procedure, shortened: as §1

giant foxtail = test: Test B pre/postemergence giant foxtail; assay type: in vivo, Setaria faberii; details: Preemergence
Procedure, shortened: as §1

surinam grass = test: Test B pre/postemergence surinam grass; assay type: in vivo, Brachiaria decumbens; details: Preemergence
Procedure, shortened: as §1

purple nutsedge = test: Test B pre/postemergence purple nutsedge; assay type: in vivo, Cyperus rotundus; details: Preemergence
Procedure, shortened: as §1

[1] = Rate 62 g/ha, scale of 0 to 10 where 0 is no effect and 10 is complete control
[2] = Rate 125 g/ha, scale of 0 to 10 where 0 is no effect and 10 is complete control
[3] = Rate 250 g/ha, scale 0 (no effect) to 10 (complete control)
[4] = Rate 500 g/ha, scale 0 to 10 (0 no effect, 10 complete control)
[5] = Pre-emergence, Rate 62 g/ha, scale 0 to 10, 0 is no effect, 10 is complete control
[6] = Rate 125 g/ha, Pre-emergence section (flood test species), scale 0 to 10, 0 no effect, 10 complete control
[7] = Rate 250 g/ha, Pre-emergence (flood test species), scale 0 to 10, 0 is no effect, 10 is complete control
[8] = Rate 500 g/ha, Pre-emergence section of Table B, 0 to 10 scale (0 no effect, 10 complete control)

## CC(C)N(C(=O)n1oc(=O)n(C(C)C2CC2)c1=O)c1ccc(F)cc1F (centres unmarked) [Compound 720]
rape; [1]
  Rape plant response rating: 6
rape; [2]
  Plant response rating, Rape: 7
rape; [3]
  Rape plant response rating: 9
rape; [4]
  Rape plant response rating: 9
wheat; [1]
  Wheat plant response rating: 0
wheat; [2]
  Plant response rating, Wheat: 0
wheat; [3]
  Wheat plant response rating: 5
wheat; [4]
  Wheat plant response rating: 5
Duck salad; [5]
  Ducksalad plant response rating: 0
Duck salad; [6]
  Ducksalad plant response rating: 0
Duck salad; [7]
  Ducksalad plant response rating: 0
Duck salad; [8]
  Ducksalad plant response rating: 0
blackgrass; [1]
  Blackgrass plant response rating: 9
blackgrass; [2]
  Plant response rating, Blackgrass: 9
blackgrass; [3]
  Blackgrass plant response rating: 10
blackgrass; [4]
  Blackgrass plant response rating: 10
rice; [5]
  Rice plant response rating: 0
rice; [6]
  Rice plant response rating: 0
rice; [7]
  Rice plant response rating: 0
rice; [8]
  Rice plant response rating: 0
bamyardgrass; [5]
  Barnyardgrass plant response rating: 0
bamyardgrass; [6]
  Barnyardgrass plant response rating: 0
bamyardgrass; [7]
  Barnyardgrass plant response rating: 0
bamyardgrass; [8]
  Barnyardgrass plant response rating: 0
crabgrass; [1]
  Crabgrass plant response rating: 9
crabgrass; [2]
  Plant response rating, Crabgrass: 9
crabgrass; [3]
  Crabgrass plant response rating: 10
crabgrass; [4]
  Crabgrass plant response rating: 10
bedstraw; [2]
  Plant response rating, Bedstraw: 10
bedstraw; [3]
  Bedstraw plant response rating: 10
bedstraw; [4]
  Bedstraw plant response rating: 10
Wild oat; [1]
  Wild oats plant response rating: 7
Wild oat; [2]
  Plant response rating, Wild oats: 8
Wild oat; [3]
  Wild oats plant response rating: 9
Wild oat; [4]
  Wild oats plant response rating: 9
morningglory; [1]
  Morningglory plant response rating: 0
morningglory; [2]
  Plant response rating, Morningglory: 0
morningglory; [4]
  Morningglory plant response rating: 2
soybean; [1]
  Soybean plant response rating: 0
soybean; [2]
  Plant response rating, Soybean: 0
soybean; [3]
  Soybean plant response rating: 0
soybean; [4]
  Soybean plant response rating: 0
Sugar beet; [1]
  Sugarbeets plant response rating: 4
Sugar beet; [2]
  Plant response rating, Sugarbeets: 6
Sugar beet; [3]
  Sugarbeets plant response rating: 8
Sugar beet; [4]
  Sugarbeets plant response rating: 8
corn; [1]
  Corn plant response rating: 0
corn; [2]
  Plant response rating, Corn: 2
corn; [3]
  Corn plant response rating: 4
cocklebur; [1]
  Cocklebur plant response rating: 0
cocklebur; [2]
  Plant response rating, Cocklebur: 0
cocklebur; [3]
  Cocklebur plant response rating: 0
Smallflower flatsedge; [5]
  S. Flatsedge plant response rating: 0
Smallflower flatsedge; [6]
  S. Flatsedge plant response rating: 0
Smallflower flatsedge; [7]
  S. Flatsedge plant response rating: 0
Smallflower flatsedge; [8]
  S. Flatsedge plant response rating: 0
velvetleaf; [1]
  Velvetleaf plant response rating: 1
velvetleaf; [2]
  Plant response rating, Velvetleaf: 2
velvetleaf; [3]
  Velvetleaf plant response rating: 3
velvetleaf; [4]
  Velvetleaf plant response rating: 3
pigweed; [1]
  Redroot pigweed plant response rating: 8
pigweed; [2]
  Plant response rating, Redroot pigweed: 9
pigweed; [3]
  Redroot pigweed plant response rating: 10
pigweed; [4]
  Redroot pigweed plant response rating: 10
Giant foxtail; [1]
  Giant foxtail plant response rating: 9
Giant foxtail; [2]
  Plant response rating, Giant foxtail: 10
Giant foxtail; [3]
  Giant foxtail plant response rating: 10
Giant foxtail; [4]
  Giant foxtail plant response rating: 10
Surinam grass; [1]
  B. signalgrass plant response rating: 8
Surinam grass; [2]
  Plant response rating, B. signalgrass: 9
Surinam grass; [3]
  B. signalgrass plant response rating: 10
Surinam grass; [4]
  B. signalgrass plant response rating: 10
Purple nutsedge; [2]
  Plant response rating, Nutsedge: 0
Purple nutsedge; [4]
  Nutsedge plant response rating: 0

— patent US6737383B1, “Herbicidal oxadiazolidines” (priority 1999, dated 2004)
